Assay results reported in ChEMBL document CHEMBL1201862, “PubChem BioAssay data set” (2004).
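Interpolation was linear, between the two tested concentrations surrounding the appropriate level; five concentrations were tested over 48 hours in 96-well plates. GI50: concentration for 50% inhibition of growth.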 Activity calls are given as the source filed them. No stated cut-off is given here; in the data, active = GI50 up to about 1.1 µM and inactive = higher.

What was measured:
Experiment in all cases: DTP human tumour cell line panel, 48 h
CCRF-CEM = test system: CCRF-CEM
COLO 205 = test system: COLO 205
DU-145 = test system: DU-145
HOP-62 = test system: HOP-62
HOP-92 = test system: HOP-92
Hs-578T = test system: Hs-578T
K562 = test system: K562
LOX IMVI = test system: LOX IMVI
MDA-MB-435 = test system: MDA-MB-435
NCI/ADR-RES = test system: NCI/ADR-RES
OVCAR-4 = test system: OVCAR-4
PC-3 = test system: PC-3
RPMI-8226 = test system: RPMI-8226
SF-268 = test system: SF-268
SK-MEL-28 = test system: SK-MEL-28
SK-MEL-2 = test system: SK-MEL-2
SNB-19 = test system: SNB-19
SR = test system: SR
TK-10 = test system: TK-10
UACC-257 = test system: UACC-257

SMILES	GI50 (CCRF-CEM)	GI50 (COLO 205)	GI50 (DU-145)	GI50 (HOP-62)	GI50 (HOP-92)	GI50 (Hs-578T)	GI50 (K562)	GI50 (LOX IMVI)	GI50 (MDA-MB-435)	GI50 (NCI/ADR-RES)	GI50 (OVCAR-4)	GI50 (PC-3)	GI50 (RPMI-8226)	GI50 (SF-268)	GI50 (SK-MEL-28)	GI50 (SK-MEL-2)	GI50 (SNB-19)	GI50 (SR)	GI50 (TK-10)	GI50 (UACC-257)
CC1OC(CC(=O)O)CC2=C1C(=O)c1c(O)cccc1C2=O (stereo not given) [NANAOMYCIN]	0.0194 µM (active)	0.0474 µM (active)	1.12 µM (inactive)	1.55 µM (inactive)	0.125 µM (active)	0.142 µM (active)	0.022 µM (active)	0.0421 µM (active)	0.138 µM (active)	0.179 µM (active)	0.274 µM (active)	0.241 µM (active)	0.0447 µM (active)	0.316 µM (active)	0.063 µM (active)	0.331 µM (active)	1.66 µM (inactive)	0.0336 µM (active)	0.929 µM (active)	0.0968 µM (active)
CCOC(=O)C(Cc1cc(OC)c(CC(C(=O)OCC)C(=O)OCC)cc1OC)C(=O)OCC	> 100 µM (inactive)	> 100 µM (inactive)	> 100 µM (inactive)	> 59.3 µM (inactive)	26.9 µM (inactive)	> 100 µM (inactive)	> 100 µM (inactive)	> 100 µM (inactive)	> 100 µM (inactive)	> 100 µM (inactive)	> 100 µM (inactive)	> 100 µM (inactive)	> 100 µM (inactive)	> 94.4 µM (inactive)	> 100 µM (inactive)	> 100 µM (inactive)	> 68.5 µM (inactive)	> 100 µM (inactive)	> 100 µM (inactive)	> 100 µM (inactive)
CCCCCCCCC[n+]1cccc(C2C(C(=O)OCC)=C(C)NC(C)=C2C(=O)OCC)c1	2.11 µM (inactive)	2.56 µM (inactive)	11.6 µM (inactive)	13 µM (inactive)	1.95 µM (inactive)	3.1 µM (inactive)	3.89 µM (inactive)	2.92 µM (inactive)	2.08 µM (inactive)	52.6 µM (inactive)	6.9 µM (inactive)	4.27 µM (inactive)	1.54 µM (inactive)	4.67 µM (inactive)	2.44 µM (inactive)	1.65 µM (inactive)	3.45 µM (inactive)	5.74 µM (inactive)	10.7 µM (inactive)	2.38 µM (inactive)
C=C1C(=O)OC2CC(C)C(C(O)CC(C)O)=CCC12 (stereo not given)	1.71 µM (inactive)	10.5 µM (inactive)	14.2 µM (inactive)	26.2 µM (inactive)	12 µM (inactive)	20.9 µM (inactive)	14.1 µM (inactive)	10.6 µM (inactive)	19.6 µM (inactive)	17 µM (inactive)	19.7 µM (inactive)	21.6 µM (inactive)	6.67 µM (inactive)	14.3 µM (inactive)	9.62 µM (inactive)	16.3 µM (inactive)	28.4 µM (inactive)	8.13 µM (inactive)	9.14 µM (inactive)	12.9 µM (inactive)
Brc1ccc(/C(N=N/C(=N\Sc2ccccc2)c2ccc(Br)cc2)=N/Sc2ccccc2)cc1	> 100 µM (inactive)	> 100 µM (inactive)	> 100 µM (inactive)	> 100 µM (inactive)	> 100 µM (inactive)	> 100 µM (inactive)	> 100 µM (inactive)	> 100 µM (inactive)	> 100 µM (inactive)	> 100 µM (inactive)	> 100 µM (inactive)	> 100 µM (inactive)	> 100 µM (inactive)	> 100 µM (inactive)	> 100 µM (inactive)	> 100 µM (inactive)	> 100 µM (inactive)	> 86.9 µM (inactive)	> 100 µM (inactive)	> 100 µM (inactive)
Nc1nc(N)c2c(Cl)c(CNc3ccc(Cl)c(Cl)c3)ccc2n1	< 0.01 µM (active)	0.239 µM (active)	0.15 µM (active)	0.0171 µM (active)	0.445 µM (active)	1.6 µM (inactive)	< 0.01 µM (active)	< 0.01 µM (active)	< 0.01 µM (active)	< 0.01 µM (active)	0.871 µM (active)	< 0.01 µM (active)	0.181 µM (active)	0.0116 µM (active)	0.78 µM (active)	3.11 µM (inactive)	0.486 µM (active)	< 0.0371 µM (active)	0.256 µM (active)	0.138 µM (active)
CSC(SC)(C(=O)O)c1cc(-c2c(Cl)cccc2Cl)no1	26.4 µM (inactive)	34.4 µM (inactive)	> 100 µM (inactive)	87.5 µM (inactive)	98.9 µM (inactive)	39.2 µM (inactive)	50.8 µM (inactive)	35.6 µM (inactive)	63.4 µM (inactive)	26.5 µM (inactive)	37.9 µM (inactive)	34 µM (inactive)	16.3 µM (inactive)	51.9 µM (inactive)	> 100 µM (inactive)	26.3 µM (inactive)	> 100 µM (inactive)	33 µM (inactive)	> 100 µM (inactive)	42.9 µM (inactive)
CCC(=O)NCCc1c[nH]c2ccc(OC)cc12	> 100 µM (inactive)	> 100 µM (inactive)	> 100 µM (inactive)	> 100 µM (inactive)	> 100 µM (inactive)	> 100 µM (inactive)	> 100 µM (inactive)	> 100 µM (inactive)	> 100 µM (inactive)	> 100 µM (inactive)	> 100 µM (inactive)	> 100 µM (inactive)	> 100 µM (inactive)	> 100 µM (inactive)	> 100 µM (inactive)	> 100 µM (inactive)	> 100 µM (inactive)	> 100 µM (inactive)	> 100 µM (inactive)	> 100 µM (inactive)
C=C1C(=O)C23CC1C[C@H](OC(C)=O)[C@H]2C1(C)C(OC(C)=O)C[C@H](O)C(C)(C)[C@H]1C(=O)[C@@H]3OC(C)=O (stereo not given in full)	1.41 µM (inactive)	2.17 µM (inactive)	12.9 µM (inactive)	25.2 µM (inactive)	0.248 µM (active)	3.98 µM (inactive)	1.95 µM (inactive)	3.4 µM (inactive)	3.09 µM (inactive)	16.7 µM (inactive)	4.09 µM (inactive)	10.3 µM (inactive)	1.33 µM (inactive)	9.08 µM (inactive)	4.59 µM (inactive)	12.3 µM (inactive)	18.5 µM (inactive)	2.47 µM (inactive)	2.28 µM (inactive)	2.43 µM (inactive)
CON(C)C(=O)CNC(=O)OCC1c2ccccc2-c2ccccc21	44.1 µM (inactive)	> 100 µM (inactive)	> 100 µM (inactive)	> 100 µM (inactive)	93.1 µM (inactive)	> 100 µM (inactive)	40.7 µM (inactive)	18.8 µM (inactive)	> 100 µM (inactive)	> 100 µM (inactive)	> 100 µM (inactive)	85.1 µM (inactive)	36.2 µM (inactive)	> 100 µM (inactive)	> 100 µM (inactive)	> 100 µM (inactive)	> 100 µM (inactive)	30.6 µM (inactive)	> 100 µM (inactive)	> 100 µM (inactive)
CCCCCC(=O)OC[n+]1cccc(-c2c(COC(=O)NC(C)C)c(COC(=O)NC(C)C)c3n2CCC3)c1	6.58 µM (inactive)	62.5 µM (inactive)	35.4 µM (inactive)	44.1 µM (inactive)	27.4 µM (inactive)	69.3 µM (inactive)	37.2 µM (inactive)	24 µM (inactive)	> 100 µM (inactive)	49.4 µM (inactive)	42.4 µM (inactive)	44.3 µM (inactive)	32.7 µM (inactive)	28.5 µM (inactive)	> 100 µM (inactive)	26.7 µM (inactive)	74.3 µM (inactive)	5.78 µM (inactive)	> 84.1 µM (inactive)	> 100 µM (inactive)
C=CCC1(O)c2ccccc2C(=O)c2c(O)ccc(O)c21 (stereo not given)	11.6 µM (inactive)	13.3 µM (inactive)	9.95 µM (inactive)	12.4 µM (inactive)	12.9 µM (inactive)	4.24 µM (inactive)	11.1 µM (inactive)	9.66 µM (inactive)	1.8 µM (inactive)	2.12 µM (inactive)	11.1 µM (inactive)	8.2 µM (inactive)	> 23.8 µM (inactive)	10.5 µM (inactive)	8.28 µM (inactive)	2.68 µM (inactive)	6.5 µM (inactive)	5.48 µM (inactive)	14.6 µM (inactive)	5.3 µM (inactive)
CC(=O)n1nc(-c2ccccc2)n(/N=C/c2ccc([N+](=O)[O-])o2)c1=O	1.6 µM (inactive)	7.36 µM (inactive)	7.91 µM (inactive)	4.94 µM (inactive)	9.86 µM (inactive)	8.59 µM (inactive)	8.83 µM (inactive)	7.74 µM (inactive)	6.5 µM (inactive)	9.73 µM (inactive)	15.1 µM (inactive)	13.7 µM (inactive)	10 µM (inactive)	3.08 µM (inactive)	9.84 µM (inactive)	6.97 µM (inactive)	16.3 µM (inactive)	3.08 µM (inactive)	11.5 µM (inactive)	7.23 µM (inactive)
C/C(=N\N=C1/C(=O)OC(c2ccccc2)=C1C(=O)c1ccccc1)c1ccc([N+](=O)[O-])cc1	25.6 µM (inactive)	52.2 µM (inactive)	44.4 µM (inactive)	> 100 µM (inactive)	20.5 µM (inactive)	54.3 µM (inactive)	35 µM (inactive)	34.8 µM (inactive)	46.7 µM (inactive)	60.7 µM (inactive)	37.4 µM (inactive)	65.9 µM (inactive)	21.5 µM (inactive)	> 100 µM (inactive)	54.7 µM (inactive)	> 100 µM (inactive)	> 100 µM (inactive)	6.7 µM (inactive)	> 100 µM (inactive)	> 100 µM (inactive)
